Series [1] concerns Mycobacterium tuberculosis. Kind of series: Antimycobacterial activity against Mycobacterium tuberculosis H37Rv ATCC 27294 assessed as reduction in bacterial growth by microplate alamar blue assay. In kind it is functional.
Another series relates to Mycobacterium avium. Kind of series: Antimycobacterial activity against Mycobacterium avium assessed as reduction in bacterial growth. In kind it is functional.
Series [2] relates to Mycobacteroides abscessus. Briefly: Antimycobacterial activity against Mycobacterium abscessus ATCC 19977 assessed as reduction in bacterial growth by microplate Alamar blue assay. It counts as functional. On the technique in general: Alamar Blue is a resazurin reagent that responds to reducing activity.
A short description of series [3]: Binding affinity to N-terminal Mycobacterium tuberculosis ClpC1 assessed as dissociation constant by SPR analysis.
Series [4] can be described thus: Binding affinity to full length Mycobacterium tuberculosis ClpC1 assessed as dissociation constant by SPR analysis.
Series [5] is described as follows: Cytotoxicity against African green monkey Vero cells. In kind it is toxicity, cell-based. As to conditions: African green monkey (Chlorocebus sabaeus).
Series [6] in a line: Selectivity index, ratio of IC50 for cytotoxicity against African green monkey Vero cells to MIC for antimycobacterial activity against Mycobacterium tuberculosis H37Rv ATCC 27294. It counts as toxicity, cell-based. The conditions noted are these: read-out: Selectivity Index.

Values after ≈ are worked out from the molar mass of the structure shown.

For orientation: MIC means the smallest concentration in the dilution series that meets the test's criterion for growth inhibition. In general, Kd refers to the free concentration of one partner at which half of the binding sites on the other are occupied at equilibrium, for simple one-to-one binding. A word on the IC50: it is the midpoint of a concentration-inhibition curve.

As to `C/C=C/C[C@@H]1NC(=O)[C@H](CC(C)C)N2C(=O)[C@H](CC(C)[C@H]2OC)N(C)C(=O)[C@H](C)NC(=O)[C@H](Cc2ccc(OC(C)=O)c([N+](=O)[O-])c2)NC(=O)[C@H](CC(C)C)N(C)C(=O)[C@H](Cc2cn(C(C)(C)[C@H]3CO3)c3ccccc23)NC1=O` (stereo partly drawn), the MIC came to 0.001 µM (≈ 0.0011 µg/mL) in series [1], 0.14 µM (≈ 0.154 µg/mL) in the series with Mycobacterium avium and 0.13 µM (≈ 0.143 µg/mL) in series [2]. For the same compound, the Kd in series [3] turned out to be 40 nM; in series [4], 44 nM. This compound displayed an IC50 in series [5] of more than 100000 nM. Further, the selectivity ratio in series [6] was more than 71000.

Turning to `C/C=C/C[C@@H]1NC(=O)[C@H](CC(C)C)N2C(=O)[C@H](CC(C)[C@H]2O)N(C)C(=O)[C@H](C)NC(=O)[C@H](Cc2ccc(OC)c([N+](=O)[O-])c2)NC(=O)[C@H](CC(C)C)N(C)C(=O)[C@H](Cc2cn(C(C)(C)[C@H]3CO3)c3ccccc23)N(C)C1=O` (stereo partly drawn), the minimal inhibitory concentration (MIC) was 0.054 µM (≈ 0.0578 µg/mL) in series [1], 9 µM (≈ 9.63 µg/mL) in the series on Mycobacterium avium and 0.58 µM (≈ 0.621 µg/mL) in series [2]. For the same compound, the dissociation constant (Kd) in series [3] was found to be 120 nM; in series [4], 130 nM. Besides, the IC50 in series [5] is more than 100000 nM. In series [6], the selectivity ratio is more than 1900.

For `C/C=C/C[C@@H]1NC(=O)[C@H](CC(C)C)N2C(=O)[C@H](CC(C)[C@H]2OC)N(C)C(=O)[C@H](C)NC(=O)[C@H](Cc2ccc(OC)c([N+](=O)[O-])c2)NC(=O)[C@H](CC(C)C)N(C)C(=O)[C@H](Cc2cn(C(C)(C)[C@H](O)COC)c3ccccc23)NC1=O` (stereo partly drawn), the MIC came to 0.023 µM (≈ 0.0254 µg/mL) in series [1], 4.5 µM (≈ 4.96 µg/mL) in the series on Mycobacterium avium and 0.52 µM (≈ 0.573 µg/mL) in series [2]. In addition, the Kd in series [3] amounted to 37 nM; in series [4], 40 nM. The IC50 in series [5] is 83000 nM. The selectivity ratio in series [6] was 3600.

On to `C/C=C/C[C@@H]1NC(=O)[C@H](CC(C)C)N2C(=O)[C@H](CC(C)[C@H]2OC)N(C)C(=O)[C@H](C)NC(=O)[C@H](Cc2ccc(OC(C)=O)c([N+](=O)[O-])c2)NC(=O)[C@H](CC(C)C)N(C)C(=O)[C@H](Cc2cn(C(C)(C)[C@H](O)CCl)c3ccccc23)NC1=O` (stereo partly drawn), for which the minimal inhibitory concentration (MIC) in series [1] came to 0.005 µM (≈ 0.00567 µg/mL); in the series on Mycobacterium avium, 0.21 µM (≈ 0.238 µg/mL); in series [2], 0.21 µM (≈ 0.238 µg/mL). Besides, the results for the equilibrium dissociation constant (Kd) in series [3] and in series [4] were 38 nM and 42 nM, respectively. The compound further gave an IC50 in series [5] of more than 100000 nM. In series [6], the selectivity ratio was more than 20000.

Values taken from ChEMBL document CHEMBL6177961, “Structure-Based Analysis of Semisynthetic Anti-TB Rufomycin Analogues” (J Nat Prod, 2025).
